According to PubChem BioAssay (NCI):
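Dose response: 5 concentrations. Exposure: 48 h. Format: 96-well plates. Endpoint: linear interpolation; highest concentration if not reached. The concentration for 50% growth inhibition is given as GI50. TGI denotes the concentration required for complete inhibition of growth.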

Columns and labels:
Test in all cases: DTP human tumour cell line panel, 48 h
NCI-H23 lung = tested on: NCI-H23 lung
NCI-H460 lung = tested on: NCI-H460 lung
NCI-H522 lung = tested on: NCI-H522 lung
NCI/ADR-RES ovarian = tested on: NCI/ADR-RES ovarian
OVCAR-3 ovarian = tested on: OVCAR-3 ovarian
OVCAR-4 ovarian = tested on: OVCAR-4 ovarian
OVCAR-5 ovarian = tested on: OVCAR-5 ovarian
OVCAR-8 ovarian = tested on: OVCAR-8 ovarian
PC-3 prostate = tested on: PC-3 prostate
RPMI-8226 leukemia = tested on: RPMI-8226 leukemia
RXF 393 renal = tested on: RXF 393 renal
SF-268 CNS = tested on: SF-268 CNS
SF-295 CNS = tested on: SF-295 CNS
SF-539 CNS = tested on: SF-539 CNS
SK-MEL-2 melanoma = tested on: SK-MEL-2 melanoma
SK-MEL-28 melanoma = tested on: SK-MEL-28 melanoma
SK-MEL-5 melanoma = tested on: SK-MEL-5 melanoma
SK-OV-3 ovarian = tested on: SK-OV-3 ovarian
SN12C renal = tested on: SN12C renal
SNB-19 CNS = tested on: SNB-19 CNS
SNB-75 CNS = tested on: SNB-75 CNS
SR leukemia = tested on: SR leukemia
SW-620 colon = tested on: SW-620 colon
T-47D breast = tested on: T-47D breast
TK-10 renal = tested on: TK-10 renal
U251 CNS = tested on: U251 CNS
UACC-257 melanoma = tested on: UACC-257 melanoma
UACC-62 melanoma = tested on: UACC-62 melanoma
UO-31 renal = tested on: UO-31 renal

## CCO/C=N/C1=C(C#N)C(c2ccc(Cl)cc2)c2sc3c(CC)cccc3c2O1 (stereo not drawn)
NCI-H23 lung
  GI50: 2.56 µM
  TGI: 13.1 µM
NCI-H460 lung
  GI50: 1.74 µM
  TGI: 14.2 µM
NCI-H522 lung
  GI50: 0.433 µM
  TGI: 4.57 µM
NCI/ADR-RES ovarian
  GI50: 0.475 µM
  TGI: 3.14 µM
OVCAR-3 ovarian
  GI50: 0.813 µM
  TGI: 13.2 µM
OVCAR-4 ovarian
  GI50: 4.79 µM
  TGI: 19.6 µM
OVCAR-5 ovarian
  GI50: 3.24 µM
  TGI: 14.4 µM
OVCAR-8 ovarian
  GI50: 2.77 µM
  TGI: 15.1 µM
PC-3 prostate
  GI50: 0.788 µM
  TGI: 11.4 µM
RPMI-8226 leukemia
  GI50: 2.42 µM
  TGI: 14.4 µM
RXF 393 renal
  GI50: 1.41 µM
  TGI: 5.57 µM
SF-268 CNS
  GI50: 4.99 µM
  TGI: 21.1 µM
SF-295 CNS
  GI50: 0.331 µM
  TGI: 1.27 µM
SF-539 CNS
  GI50: 1.43 µM
  TGI: 3.6 µM
SK-MEL-2 melanoma
  GI50: 1.65 µM
  TGI: 18.3 µM
SK-MEL-28 melanoma
  GI50: 4.04 µM
  TGI: 20.4 µM
SK-MEL-5 melanoma
  GI50: 4.19 µM
  TGI: 16.4 µM
SK-OV-3 ovarian
  GI50: 5.26 µM
  TGI: 21 µM
SN12C renal
  GI50: 3.03 µM
  TGI: 14.5 µM
SNB-19 CNS
  GI50: 1.9 µM
  TGI: 13.9 µM
SNB-75 CNS
  GI50: 0.206 µM
  TGI: 2.01 µM
SR leukemia
  GI50: 0.651 µM
  TGI: 18.4 µM
SW-620 colon
  GI50: 0.71 µM
  TGI: 16.9 µM
T-47D breast
  GI50: 2.51 µM
  TGI: 15.5 µM
TK-10 renal
  GI50: 7.79 µM
  TGI: 20.6 µM
U251 CNS
  GI50: 2.38 µM
  TGI: 13.5 µM
UACC-257 melanoma
  GI50: 11.1 µM
  TGI: 26.1 µM
UACC-62 melanoma
  GI50: 0.596 µM
  TGI: 17.4 µM
UO-31 renal
  GI50: 2.2 µM
  TGI: 16 µM
